Results published in patent publication US9439414B2, “Sperm diluent solution and method for artificial insemination using same” (HIROSHIMA UNIVERSITY, priority 2009, dated 2016).

Tests used:
pig sperm [1] = experiment: Sperm acrosomal damage rate (FITC-peanut lectin staining); type: cell-based; details: EGTA 0, 3, 6, 9 mM in Modena solution
Procedure: (§1) 0-mM-EGTA medium, 3-mM-EGTA medium, 6-mM-EGTA medium and 9-mM-EGTA medium were prepared. As the 0-mM-EGTA medium, Modena solution was used as it is. Further, the 3-mM-EGTA medium, 6-mM-EGTA medium and 9-mM-EGTA medium were prepared by adding EGTA to Modena solution to attain EGTA concentrations of 3 mM, 6 mM and 9 mM, respectively, in the medium. Since addition of EGTA results in more acidic pH of the medium, NaOH was added to the medium to adjust pH to 7.0 to 7.1.
To each medium, frozen sperm were added after thawing as in Experimental Example 1, and the sperm was cultured. The culturing time was 1 hour, 3 hours or 6 hours.
The measurement of the sperm motility and detection of phosphorylation of tyrosine residues of the sperm proteins were carried out in the same manner as described above. The measurement of the sperm acrosomal damage rate was carried out as follows. On a slide glass, 5 μl of the medium was smeared, followed by air drying and 10 minutes of fixation with 99% methanol. After drying the methanol, marking was done with a liquid pen. FITC-peanut lectin was added to the smeared sperm (about 30 μl per sample), followed by 30 minutes of incubation at 37° C. in a moist atmosphere. Thereafter, the sperm were washed with PBS (5 minutes×3 times) and embedded in DAPI (VECTOR, VECTASHIELD with DAPI, H-1200) and then in manicure, followed by observation of the sperm.

pig sperm [2] = experiment: Sperm motility by motility analyzer (CASA); type: cell-based; details: EGTA 0, 3, 6, 9 mM added to Modena solution (6.3 mM EDTA); 1, 3 or 6 hours
Procedure: Media having concentrations of EDTA of 0 mM, 3 mM, 6.3 mM and 12 mM were prepared. The 0-mM-EDTA medium and the 3-mM-EDTA medium were prepared by removing EDTA-2Na from Modena solution and adjusting the EDTA concentration to 0 mM and 3 mM, respectively. As the 6.3-mM-EDTA medium, Modena solution was used as it is. Further, the 12-mM-EDTA medium was prepared by adding EDTA-2Na to Modena solution to attain an EDTA concentration of 12 mM.
To each medium, frozen sperm were added after thawing as in Experimental Example 1, and the sperm were cultured. The culturing time was 1 hour, 3 hours or 6 hours.
After the culture, the sperm motility was calculated using a motility analyzer (computer-assisted sperm motility analysis (CASA) system). On a plate prewarmed to 38° C., 5 μl of the medium after the culture was placed, and the ratio of moving sperm was analyzed using a computer.
as §1, with “7.1. […]” for “7.1.”

mother pigs and piglets = experiment: Health of mother pigs and piglets after artificial insemination with the cortisol-containing sperm diluent; type: in vivo, pig; details: 5 μg cortisol injected to the uterus
Procedure: Although the above adrenocortical hormone (a steroid hormone such as cortisol) is usually injected at a dose of 5 to 50 mg per individual for therapy of livestock, only 5 μg was injected to the uterus in the artificial insemination of the present Example. Thus, since this dose is about 1,000 to 10,000 times smaller than the dose in the cases of therapeutic use, it is thought that the meat of the mother pig and the fetuses in the uterus are not affected.

Row | deformed piglets after the delivery (mother pigs and piglets) | SMILES | sperm acrosomal damage rate (FIG. 5) (pig sperm [1]) | sperm motility (FIG. 3) (pig sperm [2])
1 |  | O=C(O)CN(CCOCCOCCN(CC(=O)O)CC(=O)O)CC(=O)O [EGTA, ethylene glycol Bis(2-aminoethyl)-N,N,N′,N′-tetraacetic acid] | low | high
2 | no deformed piglet was found | C[C@]12CCC(=O)C=C1CC[C@@H]1[C@@H]2[C@@H](O)C[C@@]2(C)[C@H]1CC[C@]2(O)C(=O)CO [cortisol] |  | 
